Measurements: PubChem BioAssay (NCI)
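Protocol summary: plate cells (96-well), add compound at 5 concentrations, incubate 48 h, interpolate endpoints linearly. TGI marks complete inhibition of growth.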

What was measured:
Assay in all cases: inhibition of tumour cell growth, NCI panel, 48 h
DLD-1 colon = tested on: DLD-1 colon
DMS 114 small cell lung = tested on: DMS 114 small cell lung
DMS 273 small cell lung = tested on: DMS 273 small cell lung
HOP-18 NSCLC = tested on: HOP-18 NSCLC
KM20L2 colon = tested on: KM20L2 colon
LXFL 529 NSCLC = tested on: LXFL 529 NSCLC
M19-MEL melanoma = tested on: M19-MEL melanoma
RXF-631 renal = tested on: RXF-631 renal
SNB-78 CNS = tested on: SNB-78 CNS
UO-31 renal = tested on: UO-31 renal
XF 498 CNS = tested on: XF 498 CNS
HS 578T breast = tested on: HS 578T breast

## Cc1cn2cc(-c3ccncc3)nc2s1
DLD-1 colon
  TGI: > 100 µM
DMS 114 small cell lung
  TGI: > 100 µM
DMS 273 small cell lung
  TGI: > 100 µM
HOP-18 NSCLC
  TGI: > 100 µM
KM20L2 colon
  TGI: > 100 µM
LXFL 529 NSCLC
  TGI: > 100 µM
M19-MEL melanoma
  TGI: > 100 µM
RXF-631 renal
  TGI: > 100 µM
SNB-78 CNS
  TGI: > 100 µM
UO-31 renal
  TGI: > 100 µM
XF 498 CNS
  TGI: > 100 µM

## CN(C)CCCNc1ccc2nnn3c4ccc([N+](=O)[O-])cc4c(=O)c1c23
DLD-1 colon
  TGI: 14.4 µM
DMS 114 small cell lung
  TGI: 14.1 µM
DMS 273 small cell lung
  TGI: 6.89 µM
HOP-18 NSCLC
  TGI: 13.6 µM
HS 578T breast
  TGI: 14.2 µM
KM20L2 colon
  TGI: 9.69 µM
LXFL 529 NSCLC
  TGI: 15 µM
M19-MEL melanoma
  TGI: 16.2 µM
RXF-631 renal
  TGI: 7.59 µM
SNB-78 CNS
  TGI: 16 µM
UO-31 renal
  TGI: 9.5 µM
XF 498 CNS
  TGI: 11.4 µM
